Test results as given in the NIST ThermoML archive (doi:10.1021/je900888e).

Assay: mn = molality of the nth substance listed, in mol/kg
Details: 101 kPa, Liquid; for speed of sound: Pulse-echo method

CC(C)=O [acetone] + CCCC[P+](CCCC)(CCCC)CCCC.[Br-]
m2 = 0
Details | mass density [kg/m3]
288.15 K | 795.633
293.15 K | 789.952
298.15 K | 784.234
303.15 K | 778.47
308.15 K | 772.661
313.15 K | 766.799

CC#N [acetonitrile] + CCCC[P+](CCCC)(CCCC)CCCC.[Br-]
m2 = 0
Details | mass density [kg/m3]
288.15 K | 787.275
293.15 K | 781.893
298.15 K | 776.493
303.15 K | 771.067
308.15 K | 765.61
313.15 K | 760.119
323.15 K | 749.031

CCCCO [butan-1-ol] + CCCC[P+](CCCC)(CCCC)CCCC.[Br-]
m2 = 0
Details | mass density [kg/m3]
288.15 K | 813.269
293.15 K | 809.472
298.15 K | 805.659
303.15 K | 801.817
308.15 K | 797.945
313.15 K | 794.037
323.15 K | 786.081

CCO [ethanol] + CCCC[P+](CCCC)(CCCC)CCCC.[Br-]
m2 = 0
Details | mass density [kg/m3]
288.15 K | 793.628
293.15 K | 789.354
298.15 K | 785.063
303.15 K | 780.745
308.15 K | 776.392
313.15 K | 772
323.15 K | 763.084

CCCO [propan-1-ol] + CCCC[P+](CCCC)(CCCC)CCCC.[Br-]
m2 = 0
Details | mass density [kg/m3]
288.15 K | 807.448
293.15 K | 803.46
298.15 K | 799.452
303.15 K | 795.414
308.15 K | 791.344
313.15 K | 787.227
323.15 K | 778.86

CCCC[P+](CCCC)(CCCC)CCCC.[Br-] [tetrabutylphosphonium bromide] + CC#N
Details | mass density, 288.15 K [kg/m3] | mass density, 293.15 K [kg/m3] | mass density, 298.15 K [kg/m3] | mass density, 303.15 K [kg/m3] | mass density, 308.15 K [kg/m3] | mass density, 313.15 K [kg/m3] | mass density, 323.15 K [kg/m3] | speed of sound, 298.15 K [m/s]
m1 = 0.007874 | 787.927 | 782.552 | 777.157 | 771.738 | 766.288 | 760.805 | 749.733 | –
m1 = 0.01066 | 788.155 | 782.783 | 777.389 | 771.974 | 766.524 | 761.045 | 749.978 | –
m1 = 0.01465 | 788.477 | 783.109 | 777.721 | 772.308 | 766.862 | 761.385 | 750.325 | –
m1 = 0.01965 | 788.885 | 783.521 | 778.136 | 772.724 | 767.283 | 761.811 | 750.761 | –
m1 = 0.02448 | 789.275 | 783.912 | 778.532 | 773.125 | 767.689 | 762.22 | 751.178 | –
m1 = 0.0297 | 789.7 | 784.34 | 778.965 | 773.559 | 768.128 | 762.662 | 751.631 | –
m1 = 0.03509 | 790.132 | 784.784 | 779.405 | 774.005 | 768.58 | 763.119 | 752.095 | –
m1 = 0.03974 | 790.506 | 785.156 | 779.78 | 774.389 | 768.965 | 763.508 | 752.488 | 1280.1
m1 = 0.04929 | 791.273 | 785.93 | 780.567 | 775.178 | 769.76 | 764.31 | 753.307 | 1280.5
m1 = 0.06938 | 792.879 | 787.551 | 782.208 | 776.834 | 771.429 | 765.995 | 755.023 | 1281.4
m1 = 0.08849 | 794.411 | 789.095 | 783.76 | 778.399 | 773.011 | 767.591 | 756.649 | 1282.2
m1 = 0.1056 | 795.783 | 790.48 | 785.156 | 779.812 | 774.43 | 769.023 | 758.107 | –
m1 = 0.1224 | 797.155 | 791.858 | 786.545 | 781.208 | 775.841 | 770.445 | 759.553 | –
m1 = 0.1338 | 798.088 | 792.8 | 787.494 | 782.156 | 776.78 | 771.4 | 760.532 | 1284.1
m1 = 0.1414 | 798.688 | 793.405 | 788.102 | 782.773 | 777.428 | 772.045 | 761.174 | –
m1 = 0.1504 | 799.412 | 794.136 | 788.839 | 783.514 | 778.17 | 772.795 | 761.945 | –
m1 = 0.1671 | 800.758 | 795.492 | 790.206 | 784.9 | 779.563 | 774.2 | 763.372 | 1285.6
m1 = 0.1811 | 801.879 | 796.621 | 791.346 | 786.047 | 780.72 | 775.365 | 764.561 | –
m1 = 0.1987 | 803.297 | 798.049 | 792.784 | 787.498 | 782.184 | 776.843 | 766.064 | 1287
m1 = 0.2296 | 805.781 | 800.553 | 795.309 | 790.042 | 784.751 | 779.433 | 768.697 | 1288.3
m1 = 0.2599 | 808.22 | 803.012 | 797.78 | 792.541 | 787.27 | 781.973 | 771.277 | 1289.5
m1 = 0.2925 | 810.865 | 805.677 | 800.473 | 795.247 | 789.997 | 784.72 | 774.075 | 1290.8
m1 = 0.3259 | 813.591 | 808.424 | 803.241 | 798.038 | 792.811 | 787.558 | 776.962 | 1292.2

CCCC[P+](CCCC)(CCCC)CCCC.[Br-] [tetrabutylphosphonium bromide] + CC(C)=O
Details | mass density, 288.15 K [kg/m3] | mass density, 293.15 K [kg/m3] | mass density, 298.15 K [kg/m3] | mass density, 303.15 K [kg/m3] | mass density, 308.15 K [kg/m3] | mass density, 313.15 K [kg/m3] | speed of sound, 298.15 K [m/s]
m1 = 0.009972 | 796.516 | 790.843 | 785.133 | 779.385 | 773.586 | 767.735 | 1161.1
m1 = 0.01477 | 796.926 | 791.257 | 785.552 | 779.806 | 774.015 | 768.169 | –
m1 = 0.01959 | 797.328 | 791.666 | 785.967 | 780.225 | 774.439 | 768.597 | 1161.8
m1 = 0.02424 | 797.711 | 792.056 | 786.362 | 780.624 | 774.841 | 769.006 | –
m1 = 0.02891 | 798.099 | 792.447 | 786.758 | 781.026 | 775.247 | 769.416 | –
m1 = 0.03385 | 798.51 | 792.86 | 787.178 | 781.451 | 775.678 | 769.85 | 1162.7
m1 = 0.04786 | 799.673 | 794.037 | 788.362 | 782.648 | 776.885 | 771.075 | 1163.6
m1 = 0.0619 | 800.822 | 795.195 | 789.537 | 783.836 | 778.088 | 772.29 | 1164.5
m1 = 0.07794 | 802.136 | 796.525 | 790.878 | 785.191 | 779.457 | 773.675 | 1165.7
m1 = 0.09642 | 803.646 | 798.046 | 792.414 | 786.74 | 781.022 | 775.257 | 1166.8
m1 = 0.123 | 805.822 | 800.247 | 794.64 | 788.995 | 783.255 | 777.557 | 1168.4
m1 = 0.1559 | 808.487 | 802.938 | 797.356 | 791.736 | 786.072 | 780.36 | 1170.4
m1 = 0.1912 | 811.381 | 805.858 | 800.306 | 794.713 | 789.077 | 783.39 | 1172.7
m1 = 0.2209 | 813.828 | 808.333 | 802.798 | 797.229 | 791.622 | 785.97 | 1174.3
m1 = 0.2576 | 816.813 | 811.345 | 805.845 | 800.309 | 794.734 | 789.113 | 1176.6
m1 = 0.2914 | 819.596 | 814.151 | 808.679 | 803.169 | 797.619 | 792.03 | 1178.7
